The values below come from PMC9122626 (2020).

The structures appear in SMILES notation.

The subject of test [1] is human telomeric G4 DNA, dAGGG(TTAGGG)3 (DNA, G4) AGGGTTAGGGTTAGGGTTAGGG
Description: ITC. The settings on record: 298.15 K; 64 μM DNA in cell, 700 μM peptide in syringe.

In test [2] the test system is ds26 (DNA, duplex) CAATCGGATCGAATTCGATCCGATTG
Description: ITC. The following applies: Na+ 100 mM.

Test [3] relates to human telomeric G4 DNA, dAGGG(TTAGGG)3 (DNA, G4) AGGGTTAGGGTTAGGGTTAGGG
Description: EMSA. The settings on record: 30 μM G4; room temperature; up to 120 μM peptide. In general terms: In EMSA bound probe runs differently from free probe, usually more slowly.

Test [4] shares this test system. Description: CD melting (295 nm). The settings on record: Na+ 100 mM; peptide concentration not given.
The test system is the same in test [5]. Description: thiazole orange displacement (fluorescence). The following applies: 298 K; at ~8.4 μM peptide; thiazole orange displaced; 0.25 μM G4, 0.50 μM TO.

Regarding `CC(C)[C@H](N)C(=O)N[C@@H](CCC(=O)N[C@@H](CCC(=O)O)C(=O)O)C(=O)N[C@@H](CCC(=O)O)C(=O)O` (racemic), the binding result in test [1] and in test [3] was “no” each time. Also, the Ka in test [2] worked out at 3360 M⁻¹. The Tm in test [4] is ~ -1 °C. Further, the “% TO displacement” value in test [5] is listed as ~ 6.5%.
